In ChEMBL document CHEMBL1201862, “PubChem BioAssay data set” (2004):
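How tested: cells in 96-well plates exposed to compound for 48 hours at five concentrations. GI50 = concentration required for 50% inhibition of growth.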 Activity calls are given as the source filed them. Cut-off read from the data, not from the text of the source: active = GI50 up to about 1.1 µM and inactive = higher. Non-standard residues stand in square brackets, D forms with d. Residues, ends and D or L forms follow the SMILES beside them. ξ: configuration not given here. *: point of attachment. ξF = NC(Cc1ccccc1)C(=O)O; Cbz = O=C(OCc1ccccc1)*

Key:
Assay in all cases: DTP human tumour cell line panel, 48 h
[1] = test system: A549
[2] = test system: MOLT-4
[3] = test system: U-251
[4] = test system: SK-MEL-5
[5] = test system: SF-295
[6] = test system: SW-620
[7] = test system: SNB-75
[8] = test system: MDA-MB-435
[9] = test system: HL-60
[10] = test system: NCI/ADR-RES
[11] = test system: MDA-MB-231
[12] = test system: M14
[13] = test system: T47D
[14] = test system: Malme-3M
[15] = test system: HOP-62
[16] = test system: TK-10
[17] = test system: OVCAR-4
[18] = test system: UACC-257
[19] = test system: SK-MEL-28
[20] = test system: NCI-H522

Measured: GI50

CCOC(=O)CNC(=O)C(Cc1ccccc1)NC(=O)OCc1ccccc1 (configuration not stated) (Cbz-[ξF]-Gly-OEt)
inactive: [1] > 100 µM | [2] > 100 µM | [3] > 100 µM | [4] > 100 µM | [5] > 100 µM | [6] > 100 µM | [7] > 100 µM | [8] > 100 µM | [9] > 100 µM | [10] > 100 µM | [11] > 100 µM | [12] > 100 µM | [13] 71.9 µM | [14] 86.3 µM | [15] > 100 µM

CN1C(=O)N/C(=C\c2ccc(S(=O)(=O)NN)cc2)C1=O
inactive: [1] > 100 µM | [2] > 100 µM | [3] > 100 µM | [16] > 100 µM | [4] > 100 µM | [17] > 100 µM | [5] > 100 µM | [6] > 100 µM | [18] > 100 µM | [7] > 100 µM | [8] > 100 µM | [9] > 100 µM | [10] > 100 µM | [19] > 100 µM | [11] > 100 µM | [12] > 100 µM | [13] > 100 µM | [14] > 100 µM | [15] > 100 µM

CC(=O)C1COC(O)C1C (configuration not stated)
inactive: [1] 53.8 µM | [2] 17.9 µM | [3] 23.4 µM | [16] 28.6 µM | [4] 16 µM | [5] 26.1 µM | [6] 18 µM | [18] 32.2 µM | [7] 23.3 µM | [8] 16.1 µM | [9] 12.4 µM | [10] 18.5 µM | [19] 19.5 µM | [11] 22.2 µM | [12] 23.9 µM | [13] 35.2 µM | [15] 16.3 µM

O=c1[nH]nc(Cc2ccccc2)n1N=C1CCCCC1
inactive: [1] > 100 µM | [2] > 100 µM | [3] > 100 µM | [16] > 100 µM | [4] > 100 µM | [17] > 100 µM | [5] > 100 µM | [20] > 100 µM | [6] > 100 µM | [18] > 100 µM | [8] > 100 µM | [9] > 100 µM | [10] > 100 µM | [19] > 100 µM | [11] > 100 µM | [12] > 100 µM | [13] > 100 µM | [14] > 100 µM | [15] > 100 µM

CCCCOCOc1ccccc1P1(=O)COc2ccccc2OC1
inactive: [1] 88.5 µM | [3] > 100 µM | [16] 20.8 µM | [4] > 100 µM | [17] 42.2 µM | [5] 60.5 µM | [6] > 100 µM | [18] 67.3 µM | [7] > 100 µM | [8] > 100 µM | [9] 34.7 µM | [10] > 100 µM | [19] > 100 µM | [11] 43.4 µM | [12] 83.9 µM | [13] 45.4 µM | [14] > 100 µM | [15] > 100 µM

C=CCN1C[C@H](C)N([C@H](c2ccc(C(=O)N(CC)CCO)cc2)c2cccc(OC)c2)C[C@H]1C
inactive: [1] > 100 µM | [2] 51.5 µM | [3] 56 µM | [16] > 100 µM | [4] 54.7 µM | [17] > 100 µM | [5] > 100 µM | [20] > 100 µM | [6] > 100 µM | [18] 47 µM | [8] > 100 µM | [9] > 100 µM | [10] > 100 µM | [19] > 100 µM | [11] > 100 µM | [12] > 100 µM | [13] 38.5 µM | [14] > 100 µM | [15] > 100 µM

C=C1c2nc3ccccc3n2C=C(c2ccc(Cl)cc2)N1c1ccc(OCCN2CCOCC2)cc1
inactive: [1] 27.4 µM | [3] 30.5 µM | [16] 35.9 µM | [4] 13.4 µM | [17] 12.1 µM | [6] 22 µM | [18] 22.7 µM | [7] > 100 µM | [8] 12.6 µM | [9] 7.91 µM | [10] 12.3 µM | [19] 28.9 µM | [11] 62.4 µM | [12] 15.7 µM | [13] 21.4 µM | [14] 52 µM | [15] 52.6 µM

Oc1c(Br)cc(/C=C/c2cccc(/C=C/c3cc(Br)c(O)c(Br)c3)n2)cc1Br
inactive: [1] 3.72 µM | [2] 3.43 µM | [3] 9.06 µM | [16] 14.2 µM | [4] 7.06 µM | [17] 13.3 µM | [5] 7.87 µM | [6] 17.7 µM | [18] 15.7 µM | [7] 4.34 µM | [8] 13.5 µM | [9] 2.03 µM | [10] 21.6 µM | [19] 12.1 µM | [11] 14.8 µM | [12] 13.8 µM | [13] 5.89 µM | [15] 31.6 µM
